Measurements as given in patent publication US20060216238A1, “Compositions and methods for targeting or imaging a tissue in a vertebrate subject” (priority 2005, published 2006).

Tests used:
HUVECS = experiment: Endothelial cell migration assay; assay type: cell-based, human
Protocol: Endothelial cell migration assay. Migration of calcein AM labeled cells (5 μM, 30 min, at 37° C.) was tested in the presence or absence of the CPMV chimeras using cell migration chambers Briefly, the lower wells were loaded with buffers containing various chemo-attractants. The framed filter membrane was positioned on the top and 50,000 calcein labeled HUVECs treated with/without the targeting chimeras were added to the top well above the membrane. The assembly was incubated for 2 h at 37° C. and the number of cells that transmigrated to the bottom wells was quantified by measuring the intensity of fluorescence at 488 nm.

[1] = tested on: CD8+ T cells producing IFN-γ and TNF-α; experiment: Virus-specific CD8+ T-cell activity, ICCS assay; assay type: in vivo, mouse
LCMV = settings: mouse, in vivo
[2] = Trafficking of OG-CPMV in vivo by tissue fluorescence measurements; design: species or system mouse; settings: oral, exception GI tissues and lymph nodes in 1 of 3 mice
Protocol: Inoculation of mice with free Oregon Green 488 dye. Mice were administered 3.81 μg per mouse of free OG-488 dye by oral gavage, the equivalent amount of dye as that attached to the CPMV particles given by oral gavage. One mouse per day for three days post inoculation was perfused and tissues were isolated for fluorescence measurements. Similarly, by the intravenous route three mice were injected with 0.509 μg per mouse of free OG-488 dye, the equivalent amount of dye as that attached to the CPMV particles administered i.v. Tissues were harvested from mice following perfusion as described above.
Fluorescence measurements. Tissues were isolated and homogenized in PBS, then centrifuged at 10,000 g for 10 minutes at 4° C. to precipitate the cell debris. The OG-488-specific fluorescence emissions in the clarified tissue supernatants were determined using a Varian Cary Eclipse fluorescence spectrophotometer. A control sample of sham-inoculated tissue supernatant from each tissue was spiked with a known amount of OG-CPMV and the tissue-specific dye excitation and emission were determined for each tissue. The determined tissue specific emission λ value was then used in five separate scans of each tissue supernatant sample, following which the spectra were averaged and the emission value of the sham-inoculated control sample was subtracted as background.

VEGF [reference compound]
stimulation of migration of cells across the filter (HUVECS): 30%

Lymphocytic choriomeningitis virus (LCMV), Armstrong strain
CD8+ T cells producing IFN-γ ([1]; assay 8 days after boosting): 13.53% | CD8+ T cells producing TNF-α ([1]; assay 8 days after boosting): 7.3% | CD8+ T-cells producing IFN-γ ([1]; primary response assay): 10% | CD8+ T-cells producing TNF-α ([1]; primary response assay): 6.5% | survival of lethal i.c. LCMV challenge (LCMV): enabled the mice to survive the lethal i.c. inoculation | survival of lethal i.c. LCMV challenge, boost experiment (LCMV): All mice inoculated with LCMV 6 weeks before survived

Oregon Green 488 (OG-488) carboxylic acid, succinimidyl ester [free OG-488 dye]
fluorescence in tissues due to free dye [2]: negligible in all tissues at all time points
